Target: human PAD4 (hPAD4) (Homo sapiens, UniProt Q9UM07)
Test: RFMS human PAD4 functional assay (rapid-fire mass spectrum)
Type: biochemical
Conditions: 5 nM hPAD4 enzyme, 250 μM BAEE, 50 μM Calcium; 30 min preincubation, 90 min reaction at 37° C.
In short: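 PAD4 (10 nM) preincubated 30 min with compound (top final 50 μM), then BAEE substrate added in pH 7.5 HEPES buffer with DTT, 50 μM calcium, TPEN; 90 min at 37° C. After TCA quench, citrulline derivatized with phenyl glyoxal (4 mM final, 30 min, 37° C) and quantified by RapidFire MS against internal standard.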

Chain of human PAD4 (hPAD4) (Q9UM07 whole entry): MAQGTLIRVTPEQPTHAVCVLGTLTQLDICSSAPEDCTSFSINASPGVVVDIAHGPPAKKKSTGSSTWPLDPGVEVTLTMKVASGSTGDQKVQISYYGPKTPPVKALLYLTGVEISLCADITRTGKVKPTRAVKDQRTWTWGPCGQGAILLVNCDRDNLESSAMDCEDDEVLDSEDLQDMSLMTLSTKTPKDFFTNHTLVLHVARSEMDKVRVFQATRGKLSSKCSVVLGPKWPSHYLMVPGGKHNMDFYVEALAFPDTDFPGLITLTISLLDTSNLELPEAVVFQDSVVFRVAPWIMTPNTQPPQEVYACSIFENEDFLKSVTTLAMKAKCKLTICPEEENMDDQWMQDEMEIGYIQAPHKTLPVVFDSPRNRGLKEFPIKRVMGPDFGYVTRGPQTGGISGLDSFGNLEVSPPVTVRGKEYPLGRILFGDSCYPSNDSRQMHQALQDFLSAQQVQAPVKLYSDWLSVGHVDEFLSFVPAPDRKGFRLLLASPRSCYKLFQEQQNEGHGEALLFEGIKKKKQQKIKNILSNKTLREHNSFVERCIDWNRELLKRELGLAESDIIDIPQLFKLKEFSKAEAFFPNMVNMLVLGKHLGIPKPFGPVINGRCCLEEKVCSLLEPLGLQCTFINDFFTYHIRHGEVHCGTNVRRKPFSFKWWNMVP

Row | Compound | IC50
1 | N[C@@H]1C2CCC1N(C(=O)c1cc(Cl)c3c(c1)nc(-c1cc4ccccc4n1CC1CC1)n3CC1CN(C(=O)c3ccccc3)C1)C2 (stereo partly drawn) [Example 143, (1R,4R,7R)-2-{1-[(1-benozylazetidin-3-yl)methyl]-7-chloro-2-[1-(cyclopropylmethyl)-1H-indol-2-yl]-1H-1,3-benzodiazole-5-carbonyl}-2-azabicyclo[2.2.1]heptan-7-amine] | 23 nM
2 | COc1cc(C(=O)N2CC3CCC2[C@@H]3N)cc2nc(-c3cc4cccnc4n3CC3CC3)n(Cc3ccnn3C)c12 (stereo partly drawn) [Example 496, (7R)-2-{2-[1-(cyclopropylmethyl)-1H-pyrrolo[2,3-b]pyridin-2-yl]-7-methoxy-1-[(1-methyl-1H-pyrazol-5-yl)methyl]-1H-1,3-benzodiazole-5-carbonyl}-2-azabicyclo[2.2.1]heptan-7-amine] | 102 nM
3 | COc1cc(C(=O)N2C[C@H]3CC[C@@H]2[C@@H]3N)cc2nc(-c3cc4cccnc4n3CC3CC3)n(CC3CN(C(=O)c4ccccc4)C3)c12 [Example 88, (1R,4R,7R)-2-{1-[(1-benzoylazetidin-3-yl)methyl]-2-[1-(cyclopropylmethyl)-1H-pyrrolo[2,3-b]pyridin-2-yl]-7-methoxy-1H-1,3-benzodiazole-5-carbonyl}-2-azabicyclo[2.2.1]heptan-7-amine] | 21 nM
4 | N[C@@H]1C2CCC1N(C(=O)c1cc(F)c3c(c1)nc(-c1cc4cccnc4n1CC1CC1)n3CC1CN(C(=O)c3ccncc3)C1)C2 (stereo partly drawn) [Example 466, (7R)-2-{2-[1-(cyclopropylmethyl)-1H-pyrrolo[2,3-b]pyridin-2-yl]-7-fluoro-1-{[1-(pyridine-4-carbonyl)azetidin-3-yl]methyl}-1H-1,3-benzodiazole-5-carbonyl}-2-azabicyclo[2.2.1]heptan-7-amine] | 84 nM
5 | C#CC(=O)N1CC(Cn2c(-c3cc4cccnc4n3CC3CC3)nc3cc(C(=O)N4CC5CCC4[C@@H]5N)cc(OC)c32)C1 (stereo partly drawn) [Example 133, 1-[3-({5-[(1R,4R,7R)-7-amino-2-azabicyclo[2.2.1]heptane-2-carbonyl]-2-[1-(cyclopropylmethyl)-1H-pyrrolo[2,3-b]pyridin-2-yl]-7-methoxy-1H-1,3-benzodiazol-1-yl}methyl)azetidin-1-yl]prop-2-yl-1-one] | 165 nM
6 | N[C@@H]1[C@@H]2CC[C@H]1N(C(=O)c1cc(F)c3c(c1)nc(-c1cc4ccccc4n1CC1CC1)n3CC1CN(C(=O)c3ccncc3)C1)C2 [Example 95, (1R,4R,7R)-2-{2-[1-(cyclopropylmethyl)-1H-indol-2-yl]-7-fluoro-1-{[1-(pyridine-4-carbonyl)azetidin-3-yl]methyl}-1H-1,3-benzodiazole-5-carbonyl}-2-azabicyclo[2.2.1]heptan-7-amine] | 16 nM
7 | COc1cc(C(=O)N2C[C@H]3CC[C@@H]2[C@@H]3N)cc2nc(-c3cc4cccnc4n3CC3CC3)n(C3CN(c4cncc(C#N)c4)C3)c12 [Example 73, 5-(3-{5-[(1R,4R,7R)-7-amino-2-azabicyclo[2.2.1]heptane-2-carbonyl]-2-[1-(cyclopropylmethyl)-1H-pyrrolo[2,3-b]pyridin-2-yl]-7-methoxy-1H-1,3-benzodiazol-1-yl}azetidin-1-yl)pyridine-3-carbonitrile] | 149 nM
8 | COc1cc(C(=O)N2CC3CCC2[C@@H]3N)cc2nc(-c3csc4ccc(Cl)cc34)n(CC3CN(c4ccnc(C(N)=O)n4)C3)c12 (stereo partly drawn) [Example 320, 4-[3-({5-[(1R,4R,7R)-7-amino-2-azabicyclo[2.2.1]heptane-2-carbonyl]-2-(5-chloro-1-benzothiophen-3-yl)-7-methoxy-1H-1,3-benzodiazo1-1-yl}methyl)azetidin-1-yl]pyrimidine-2-carboxamide] | 1350 nM
9 | COc1cc(C(=O)N2C[C@H]3CC[C@@H]2[C@@H]3N)cc2nc(-c3cc4ccc(Cl)cc4n3CC3CC3)n(CC3CN(c4ccnc(C)n4)C3)c12 [Example 9, (1R,4R,7R)-2-{2-[6-chloro-1-(cyclopropylmethyl)-1H-indol-2-yl]-7-methoxy-1-{[1-(2-methylpyrimidin-4-yl)azetidin-3-yl]methyl}-1H-1,3-benzodiazole-5-carbonyl}-2-azabicyclo[2.2.1]heptan-7-amine] | 21 nM
10 | COc1cc(C(=O)N2C[C@H]3CC[C@@H]2[C@@H]3N)cc2nc(-c3cc4cccnc4n3CC3CC3)n(CC3CN(c4ccnc(C)c4)C3)c12 [Example 51, (1R,4R,7R)-2-{2-[1-(cyclopropylmethyl)-1H-pyrrolo[2,3-b]pyridin-2-yl]-7-methoxy-1-{[1-(2-methylpyridin-4-yl)azetidin-3-yl]methyl}-1H-1,3-benzodiazole-5-carbonyl}-2-azabicyclo[2.2.1]heptan-7-amine] | 152 nM

Second part, the molecule after the results:

Row | IC50 | Compound
11 | 20 nM | COc1cc(C(=O)N2CC3CCC2[C@@H]3N)cc2nc(-c3cc4ccccc4n3CC3CC3)n(CC3CN(C(=O)c4ccc(C(F)(F)F)cc4)C3)c12 (stereo partly drawn) [Example 420, (7R)-2-{2-[1-(cyclopropylmethyl)-1H-indol-2-yl]-7-methoxy-1-({1-[4-(trifluoromethyl)benzoyl]aze-tidin-3-yl}methyl)-1H-1,3-benzodiazole-5-carbonyl}-2-azabicyclo[2.2.1]heptan-7-amine]
12 | 11 nM | COc1cc(C(=O)N2C[C@H]3CC[C@@H]2[C@@H]3N)cc2nc(-c3cc4ccccc4n3CC3CC3)n(CC3CN(C(=O)c4ccncc4)C3)c12 [Example 138, (1R,4R,7R)-2-{2-[1-(cyclopropylmethyl)-1H-indol-2-yl]-7-methoxy-1-{[1-(pyridine-4-carbonyl)azetidin-3-yl]methyl}-1H-1,3-benzodiazole-5-carbonyl}-2-azabicyclo[2.2.1]heptan-7-amine]
13 | 76 nM | COc1cc(C(=O)N2CC3CCC2[C@@H]3N)cc2nc(-c3cc4cccnc4n3CC3CC3)n(CC3CN(C(=O)c4cccc(F)c4)C3)c12 (stereo partly drawn) [Example 464, (7R)-2-{2-[1-(cyclopropylmethyl)-1H-pyrrolo[2,3-b]pyridin-2-yl]-1-{[1-(3-fluorobenzoyl)azetidin-3-yl]methyl}-7-methoxy-1H-1,3-benzodiazole-5-carbonyl}-2-azabicyclo[2.2.1]heptan-7-amine]
14 | 42 nM | COc1cc(C(=O)N2CC3CCC2[C@@H]3N)cc2nc(-c3cc4ccccc4n3CC3CC3)n(CC3CN(C(=O)c4cncnc4)C3)c12 (stereo partly drawn) [Example 443, (7R)-2-{2-[1-(cyclopropylmethyl)-1H-indol-2-yl]-7-methoxy-1-{[1-(pyrimidine-5-carbonyl)azetidin-3-yl]methyl}-1H-1,3-benzodiazole-5-carbonyl}-2-azabicyclo[2.2.1]heptan-7-amine]
15 | 27 nM | COc1cc(C(=O)N2C[C@H](N)C[C@@H](F)C2)cc2nc(-c3cc4ccccc4n3CC3CC3)n(CC3(F)CN(C(=O)c4ccccc4)C3)c12 [Example 425, (3R,5R)-1-{1-[(1-benzoyl-3-fluoroazetidin-3-yl)methyl]-2-[1-(cyclopropylmethyl)-1H-indol-2-yl]-7-methoxy-1H-1,3-benzodiazole-5-carbonyl}-5-fluoropiperidin-3-amine]
16 | 400 nM | COc1cc(C(=O)N2C[C@H]3CC[C@@H]2[C@@H]3N)cc2nc(-c3cc4cccnc4n3CC3CC3)n(CC3CN(c4nc(O)ncc4C#N)C3)c12 [Example 79, 4-[3-({5-[(1R,4R,7R)-7-amino-2-azabicyclo[2.2.1]heptane-2-carbonyl]-2-[1-(cyclopropylmethyl)-1H-pyrrolo[2,3-b]pyridin-2-yl]-7-methoxy-1H-1,3-benzodiazol-1-yl}methyl)azetidin-1-yl]-2-hydroxypyrimidine-5-carbonitrile]
17 | 10 nM | COc1cc(C(=O)N2CC3CCC2[C@@H]3N)cc2nc(-c3cc4ccccc4n3CC3CC3)n(CC3CN(C(=O)c4ccsc4)C3)c12 (stereo partly drawn) [Example 416, (7R)-2-{2-[1-(cyclopropylmethyl)-1H-indol-2-yl]-7-methoxy-1-{[1-(thiophene-3-carbonyl)azetidin-3-yl]methyl}-1H-1,3-benzodiazole-5-carbonyl}-2-azabicyclo[2.2.1]heptan-7-amine]
18 | 124 nM | COc1cc(C(=O)N2C[C@H]3CC[C@@H]2[C@@H]3N)cc2nc(-c3cc4cccnc4n3CC3CC3)n(C3CN(c4ccnc(C#N)n4)C3)c12 [Example 68, 4-(3-{5-[(1R,4R,7R)-7-amino-2-azabicyclo[2.2.1]heptane-2-carbonyl]-2-[1-(cyclopropylmethyl)-1H-pyrrolo[2,3-b]pyridin-2-yl]-7-methoxy-1H-1,3-benzodiazol-1-yl}azetidin-1-yl)pyrimidine-2-carbonitrile]
19 | 14 nM | COc1cc(C(=O)N2C[C@H]3CC[C@@H]2[C@@H]3N)cc2nc(-c3cc4ccccc4n3CC3CC3)n(CC3CN(c4ccnc(C#N)n4)C3)c12 [Example 1, 4-(3-((5-((1R,4R,7R)-7-amino-2-azabicyclo[2.2.1]heptane-2-carbonyl)-2-(1-(cyclopropylmethyl)-1H-indol-2-yl)-7-methoxy-1H-benzo[d]imidazol-1-yl)methyl)azetidin-1-yl)pyrimidine-2-carbonitrile]
20 | 1260 nM | COc1cc(C(=O)N2CC3CCC2[C@@H]3N)cc2nc(-c3cc4cccnc4n3CC3CC3)n(C3CN(S(=O)(=O)C(F)(F)F)C3)c12 (stereo partly drawn) [Example 340, (1R,,4R,7R)-2-{2-[1-(cyclopropylmethyl)-1H-pyrrolo[2,3-b]pyridin-2-yl]-7-methoxy-1-(1-trifluoromethanesulfonylazetidin-3-yl)-1H-1,3-benzodiazole-5-carbonyl}-2-azabicyclo[2.2.1]heptan-7-amine]
21 | 65 nM | Cc1cc(C(=O)N2CC3CCC2[C@@H]3N)cc2nc(-c3cc4cccnc4n3CC3CC3)n(CC3CN(C(=O)c4ccccc4)C3)c12 (stereo partly drawn) [Example 458, (7R)-2-{1-[(1-benozylazetidin-3-yl)methyl]-2-[1-(cyclopropylmethyl)-1H-pyrrolo[2,3-b]pyridin-2-yl]-7-methyl-1H-1,3-benzodiazole-5-carbonyl}-2-azabicyclo[2.2.1]heptan-7-amine]

Reference: patent publication US12692254B2, “Benzimidazole inhibitors of PAD enzymes” (BRISTOL-MYERS SQUIBB COMPANY, priority 2018, dated 2026)
